Molecules are shown by their SMILES.

These results are taken from patent publication US5360613A, “Method of reducing blood levels of total cholesterol and low-density lipoprotein cholesterol” (Iowa State University Research Foundation, Inc., priority 1993, dated 1994).

Data set [1] can be described thus: Hygroscopicity of HMB salts. Type of data set: physicochemical. The note with it: compared with sodium or potassium salts.
Data set [2] in a line: Human dose-response study, body weight and body fat (Example V, Table E). Type of data set: in vivo, humans. The following applies: for % Change After 8 Days, Body fat (%): linear effect NS; for % Change After 8 Days, Weight: linear effect p .32. How it is done:
(§1) Higher dose levels than in Example IV of Ca-HMB were tested in humans. The objective was to obtain an indication of whether higher doses could be safely administered, and also whether higher doses might provide a greater reduction in total cholesterol and LDL cholesterol.
(§2) Normal humans were used in the study. Ca-HMB was administered in 250 mg capsules, and the subjects were instructed to take the capsules in 4 equal doses daily. No control of diet was attempted except they were instructed to eat as they normally would. On alternate days the subjects had blood drawn before the morning meal and before they took the morning HMB dose. Four subjects were studied for dose level of 05., 1, 2 and 4 grams per day.
(§3) Results from all samples of each subject were subjected to linear regression and the slope and intercept used to calculate the % change in concentration after 8 days on treatment. The percentage changes were then subjected to ANOVA-regression to determine if there was a linear effect of dosage on the parameter. The dose-response effect (p<) is listed in the linear effect column of Table E.

The next data set deals with blood cholesterol. In words: Human dose-response study, blood cholesterol, triglycerides and glucose (Example V, Table E). Type of data set: in vivo, humans. The following applies: for % Change After 8 Days, Cholesterol: linear effect p .21; for % Change After 8 Days, LDL: linear effect p .26; for % Change After 8 Days, Triglycerides: linear effect p .50; for % Change After 8 Days, HDL: linear effect p .85; for % Change After 8 Days, Glucose: linear effect p .99. The protocol:
as §1, §2, §3

For data set [3], the system named is plasma cholesterol and triglycerides. Nature of the data set: Pig feeding study, plasma cholesterol and triglycerides (Example III, Table C). The data set is classed as in vivo, pigs. The protocol: (§4) A further large mammal study was carried out with pigs. Pigs comprise test animals which are more similar in certain respects to humans than ruminants.
(§5) Control: 60 g. of calcium
(§6) The pigs were housed in pens of two animals each and were allowed ad libitum access to food and water. Pigs were approximately 160 lbs. at the start of the experiment and were 240 lbs. at the end. All pigs were castrate males. At day 28 and day 43 of the experiment blood was collected from the anterior vena cava by venipuncture. Blood was collected into EDTA containing tubes, centrifuged and frozen until analyzed. At approximately 100 days of the experiment half of the animals (32) were slaughtered, and at 120 days the remaining 32 animals were slaughtered. At the time of slaughter the abdominal aorta was dissected out and external fat removed. The aorta was then split lengthwise and 1/2 fixed in formaldehyde for 48 hours. At this time aortas were removed, stretched over a 6 inch stick, washed in ethanol and stained with a lipid stain for 2 hours. After a 1 hour wash aortas were blotted and examined. All the aortas from a group were laid out on a white bench and arranged in order from least sever to most sever. The least sever had no dark red streaks on the aorta or around the small vertebral vessels leaving the aorta. The most sever lesions had multiple streaks in the middle of the aorta and dark red deposits in turbulent areas such as the branching of vessels from the aorta. The ordered aortas were then assigned a consecutive decimal number. The first (least severe) was assigned 0 and the most severe was assigned 3.2 Plasma cholesterol and triglycerides were measured by an enzyme-colorimetric assay (Sigma).
(§7) statistical analysis was accomplished by the general linear model procedure of the Statistical Analysis System (SAS). The model included the main effects of treatment and pen number. T-tests were conducted from the ANOVA standard error, to compare the HMB treatments to the control. […] It appeared that HMB can partially prevent the formation of pre-atherosclerotic lesions. No effect of KIC was noted relative to any parameter.

The test system of the next data set is aorta. In words: Pig feeding study, aorta streaking (pre-atherosclerotic lesions) (Example III, Table C). The data set is classed as in vivo, pigs. The note with it: dietary .05%; 0 least severe to 3.2 most severe; control 1.87; HMB p .06, KIC ns. The protocol:
as §4, §5, §6, §7

With `CC(C)(O)CC(=O)O` [Ca-HMB], the hygroscopicity result in data set [1] is recorded as “less hydroscopic than the sodium or potassium salts”. The “% Change After 8 Days, Body fat (%)” value in data set [2] (0.5 g daily) is recorded as 5%; in data set [2] (1.0 g daily), -18%; in data set [2] (2 g daily) it was -15%; in data set [2] (4 g daily) it was -1%. Besides, the “% Change After 8 Days, Weight” value in data set [2] (0.5 g daily) is on record as 1.7%; in data set [2] (1.0 g daily), “-.3%”; in data set [2] (2 g daily), “.5%”; in data set [2] (4 g daily), “.2%”. In addition, the “% Change After 8 Days, Cholesterol” value with blood cholesterol (0.5 g daily) is 6%; in the data set with blood cholesterol (1.0 g daily), 1%; in the data set with blood cholesterol (2 g daily) it was -2%; in the data set on blood cholesterol (4 g daily) it was -4%. Besides, the “% Change After 8 Days, LDL” value is 2% in the data set on blood cholesterol (0.5 g daily), 0% in the data set with blood cholesterol (1.0 g daily), -3% in the data set on blood cholesterol (2 g daily) and -6% in the data set with blood cholesterol (4 g daily). Moreover, the “% Change After 8 Days, Triglycerides” value in the data set with blood cholesterol (0.5 g daily) was 26%; with blood cholesterol (1.0 g daily) it was -16%; with blood cholesterol (2 g daily), -8%; in the data set with blood cholesterol (4 g daily), 36%. Besides, the “% Change After 8 Days, HDL” value stood at 0% in the data set on blood cholesterol (0.5 g daily), 6% with blood cholesterol (1.0 g daily), 1% with blood cholesterol (2 g daily) and 0% with blood cholesterol (4 g daily). Also, the “% Change After 8 Days, Glucose” value in the data set with blood cholesterol (0.5 g daily) is -7%; with blood cholesterol (1.0 g daily), 2%; with blood cholesterol (2 g daily), -5%; in the data set with blood cholesterol (4 g daily) it was -4%.

Turning to `CC(C)CC(=O)C(=O)O` [KIC, ketoisocaproic acid, reference compound], the “effect relative to any parameter” value in data set [3] (0.05% KIC in diet, aorta streaking, plasma cholesterol, triglycerides) is given as “No effect”. The “Plasma Triglycerides” value in data set [3] (dietary .05%, control 107, ns) was 106 mg %. Further, in data set [3] (dietary .05%, control 135, HMB p .05, KIC ns), the “Plasma Cholesterol” value came to 139 mg %. Also, in the data set on aorta, the “Aorta Streaking” value turned out to be 1.48.
